US10538555B2, “Macrocyclic inhibitors of the PD-1/PD-L1 and CD80(B7-1)/PD-L1 protein/protein interactions” (BRISTOL-MYERS SQUIBB COMPANY, priority 2014, dated 2020)
pIC50: −log10 of the molar value. Like-named read-outs stand apart in the source and are kept apart here. Where a SMILES comes first, the peptide text is derived from it. Bridges are numbered along the chain shown (N, C = ends). [ ]: non-standard residue; d: D form. ξ: configuration not given here. Bta = N[C@@H](Cc1csc2ccccc12)C(=O)O; Hyp = O=C(O)[C@@H]1C[C@@H](O)CN1; NMeF = CN[C@@H](Cc1ccccc1)C(=O)O; NMeNle = CCCC[C@H](NC)C(=O)O; hSer = N[C@@H](CCO)C(=O)O; NMeA = CN[C@@H](C)C(=O)O; ξC = NC(CS)C(=O)O; Sar = CNCC(=O)O

Target: T1, Human PD-L1/PD-1 (Homo sapiens, UniProt Q9NZQ7)
T1 construct: TVMV protease cleavage site (C); made in house; host or cells: HEK293T cells
Experiment: HTRF Human PD-L1/PD-1 binding assay (PD-1-Ig/PD-L1-His)
Conditions: PD-L1-His 10 nM, PD-1-Ig 20 nM
Summary of the method: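 Compound preincubated 15 min with PD-L1-His (10 nM final), then PD-1-Ig (20 nM final) added for 15 min in dPBS with 0.1% BSA and 0.05% Tween-20. Detection by Eu-cryptate anti-Ig (1 nM) and APC anti-His (20 nM) after 30 min; 665/620 nm HTRF ratio. Proteins expressed in HEK293T.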

[1] = class symbol, read-out: HTRF Human PD-L1/PD-1 Binding Assay IC50 Range

T1 sequence (Q9NZQ7 with tags, fused parts or gaps): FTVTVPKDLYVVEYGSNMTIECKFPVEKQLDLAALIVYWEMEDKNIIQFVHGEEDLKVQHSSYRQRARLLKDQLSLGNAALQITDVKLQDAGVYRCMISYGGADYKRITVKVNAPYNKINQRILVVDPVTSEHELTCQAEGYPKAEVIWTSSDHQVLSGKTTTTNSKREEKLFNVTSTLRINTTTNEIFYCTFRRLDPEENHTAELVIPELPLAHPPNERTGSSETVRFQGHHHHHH

| Structure (SMILES) | pIC50 [1] | pIC50 (read-out: HTRF Human PD-L1/PD-1 Binding Assay IC50) |
| --- | --- | --- |
| CCCC[C@H]1C(=O)N(C)[C@@H](CCCC)C(=O)N[C@@H](CCCNC(=N)N)C(=O)NC(C(=O)NCC(N)=O)CSCC(=O)N[C@@H](Cc2ccc(O)cc2)C(=O)N(C)[C@@H](C)C(=O)N[C@@H](CC(N)=O)C(=O)N2CCC[C@H]2C(=O)N[C@@H](CO)C(=O)N[C@@H](CO)C(=O)N2C[C@H](O)C[C@H]2C(=O)N[C@@H](Cc2c[nH]c3ccccc23)C(=O)N[C@@H](CO)C(=O)N[C@@H](Cc2c[nH]c3ccccc23)C(=O)N1C (stereo partly shown) [Example 10018] ({CH2CO}-Y[NMeA]NPSS[Hyp]WSW[NMeNle][NMeNle]R[ξC]G-NH2; thioether N-14) | 7.00 to 8.00 |  |
| CCCC[C@H]1C(=O)N(C)[C@@H](CCCC)C(=O)N[C@@H](CCCNC(=N)N)C(=O)NC(C(=O)NCC(N)=O)CSCC(=O)N[C@@H](Cc2ccc(O)cc2)C(=O)N(C)[C@@H](C)C(=O)N[C@@H](CC(N)=O)C(=O)N2CCC[C@H]2C(=O)N[C@@H](CCO)C(=O)N[C@@H](CCO)C(=O)N2CCC[C@H]2C(=O)N[C@@H](Cc2c[nH]c3ccccc23)C(=O)N[C@@H](CO)C(=O)N[C@@H](Cc2csc3ccccc23)C(=O)N1C (stereo partly shown) [Example 10019] ({CH2CO}-Y[NMeA]NP[hSer][hSer]PWS[Bta][NMeNle][NMeNle]R[ξC]G-NH2; thioether N-14) | 7.00 to 8.00 |  |
| CCCC[C@H]1C(=O)N(C)[C@@H](CCCC)C(=O)N[C@@H](CCCNC(=N)N)C(=O)NC(C(=O)NCC(N)=O)CSCC(=O)N[C@@H](Cc2ccc(O)cc2)C(=O)N(C)[C@@H](C)C(=O)N[C@@H](CC(N)=O)C(=O)N2CCC[C@H]2C(=O)N[C@@H](CCO)C(=O)N[C@@H](CCO)C(=O)N2CCC[C@H]2C(=O)N[C@@H](Cc2c[nH]c3ccccc23)C(=O)N[C@@H](CO)C(=O)N[C@@H](Cc2csc3ccccc23)C(=O)N1C (stereo partly shown) [Example 10020] ({CH2CO}-Y[NMeA]NP[hSer][hSer]PWS[Bta][NMeNle][NMeNle]R[ξC]G-NH2; thioether N-14) | 8.00 to 9.00 |  |
| CCCC[C@H]1C(=O)N(C)[C@@H](CCCC)C(=O)N[C@@H](CCCNC(=N)N)C(=O)NC(C(=O)NCC(N)=O)CSCC(=O)N[C@@H](Cc2ccc(O)cc2)C(=O)N(C)[C@@H](C)C(=O)N[C@@H](CC(N)=O)C(=O)N2CCC[C@H]2C(=O)N[C@@H](CCO)C(=O)N[C@@H](CCO)C(=O)N2CCC[C@H]2C(=O)N[C@@H](Cc2c[nH]c3ccccc23)C(=O)N[C@@H](CO)C(=O)N[C@@H](Cc2c[nH]c3ccccc23)C(=O)N1C (stereo partly shown) [Example 10021] ({CH2CO}-Y[NMeA]NP[hSer][hSer]PWSW[NMeNle][NMeNle]R[ξC]G-NH2; thioether N-14) | 7.00 to 8.00 |  |
| CCCC[C@H]1C(=O)N(C)[C@@H](CCCC)C(=O)N[C@@H](CCCNC(=N)N)C(=O)NC(C(=O)NCC(N)=O)CSCC(=O)N[C@@H](Cc2ccc(O)cc2)C(=O)N(C)[C@@H](C)C(=O)N[C@@H](CC(N)=O)C(=O)N2CCC[C@H]2C(=O)N[C@@H](CCO)C(=O)N[C@@H](CO)C(=O)N2CCC[C@H]2C(=O)N[C@@H](Cc2c[nH]c3ccccc23)C(=O)N[C@@H](CO)C(=O)N[C@@H](Cc2csc3ccccc23)C(=O)N1C (stereo partly shown) [Example 10022] ({CH2CO}-Y[NMeA]NP[hSer]SPWS[Bta][NMeNle][NMeNle]R[ξC]G-NH2; thioether N-14) |  | 6.87 |
| CCCC[C@H]1C(=O)N(C)[C@@H](CCCC)C(=O)N[C@@H](CCCNC(=N)N)C(=O)NC(C(=O)NCC(N)=O)CSCC(=O)N[C@@H](Cc2ccc(O)cc2)C(=O)N(C)[C@@H](C)C(=O)N[C@@H](CC(N)=O)C(=O)N2CCC[C@H]2C(=O)N[C@@H](CCO)C(=O)N[C@@H](CO)C(=O)N2C[C@H](O)C[C@H]2C(=O)N[C@@H](Cc2c[nH]c3ccccc23)C(=O)N[C@@H](CO)C(=O)N[C@@H](Cc2csc3ccccc23)C(=O)N1C (stereo partly shown) [Example 10023] ({CH2CO}-Y[NMeA]NP[hSer]S[Hyp]WS[Bta][NMeNle][NMeNle]R[ξC]G-NH2; thioether N-14) | 7.00 to 8.00 |  |
| CCCC[C@H]1C(=O)N(C)[C@@H](CCCC)C(=O)N[C@@H](CCCNC(=N)N)C(=O)NC(C(=O)NCC(N)=O)CSCC(=O)N[C@@H](Cc2ccc(O)cc2)C(=O)N(C)[C@@H](C)C(=O)N[C@@H](CC(N)=O)C(=O)N2CCC[C@H]2C(=O)N[C@@H](CCO)C(=O)N[C@@H](CO)C(=O)N2CCC[C@H]2C(=O)N[C@@H](Cc2c[nH]c3ccccc23)C(=O)N[C@@H](CO)C(=O)N[C@@H](Cc2c[nH]c3ccccc23)C(=O)N1C (stereo partly shown) [Example 10024] ({CH2CO}-Y[NMeA]NP[hSer]SPWSW[NMeNle][NMeNle]R[ξC]G-NH2; thioether N-14) | 7.00 to 8.00 |  |
| CCCC[C@H]1C(=O)N(C)[C@@H](CCCC)C(=O)N[C@@H](CCCNC(=N)N)C(=O)NC(C(=O)NCC(N)=O)CSCC(=O)N[C@@H](Cc2ccc(O)cc2)C(=O)N(C)[C@@H](C)C(=O)N[C@@H](CC(N)=O)C(=O)N2CCC[C@H]2C(=O)N[C@@H](CO)C(=O)N[C@@H](CCO)C(=O)N2CCC[C@H]2C(=O)N[C@@H](Cc2c[nH]c3ccccc23)C(=O)N[C@@H](CO)C(=O)N[C@@H](Cc2csc3ccccc23)C(=O)N1C (stereo partly shown) [Example 10025] ({CH2CO}-Y[NMeA]NPS[hSer]PWS[Bta][NMeNle][NMeNle]R[ξC]G-NH2; thioether N-14) | 8.00 to 9.00 |  |
| CCCC[C@H]1C(=O)N(C)[C@@H](CCCC)C(=O)N[C@@H](CCCNC(=N)N)C(=O)NC(C(=O)NCC(N)=O)CSCC(=O)N[C@@H](Cc2ccc(O)cc2)C(=O)N(C)[C@@H](C)C(=O)N[C@@H](CC(N)=O)C(=O)N2CCC[C@H]2C(=O)N[C@@H](CCO)C(=O)N[C@@H](CO)C(=O)N2CCC[C@H]2C(=O)N[C@@H](Cc2c[nH]c3ccccc23)C(=O)N[C@@H](CO)C(=O)N[C@@H](Cc2c[nH]c3ccccc23)C(=O)N1C (stereo partly shown) [Example 10034] ({CH2CO}-Y[NMeA]NP[hSer]SPWSW[NMeNle][NMeNle]R[ξC]G-NH2; thioether N-14) | 8.00 to 9.00 |  |
| CCCC[C@H]1C(=O)N(C)[C@@H](CCCC)C(=O)N[C@@H](CCCNC(=N)N)C(=O)NC(C(=O)NCC(N)=O)CSCC(=O)N[C@@H](Cc2ccc(O)cc2)C(=O)N(C)[C@@H](C)C(=O)N[C@@H](CC(N)=O)C(=O)N2CCC[C@H]2C(=O)N[C@@H](CO)C(=O)N[C@@H](CCO)C(=O)N2C[C@H](O)C[C@H]2C(=O)N[C@@H](Cc2c[nH]c3ccccc23)C(=O)N[C@@H](CO)C(=O)N[C@@H](Cc2csc3ccccc23)C(=O)N1C (stereo partly shown) [Example 10035] ({CH2CO}-Y[NMeA]NPS[hSer][Hyp]WS[Bta][NMeNle][NMeNle]R[ξC]G-NH2; thioether N-14) | 8.00 to 9.00 |  |
| CCCC[C@H]1C(=O)N(C)[C@@H](CCCC)C(=O)N[C@@H](CCCNC(=N)N)C(=O)NC(C(=O)NCC(N)=O)CSCC(=O)N[C@@H](Cc2ccc(O)cc2)C(=O)N(C)[C@@H](C)C(=O)N[C@@H](CC(N)=O)C(=O)N2CCC[C@H]2C(=O)N[C@@H](CO)C(=O)N[C@@H](CCO)C(=O)N2CCC[C@H]2C(=O)N[C@@H](Cc2c[nH]c3ccccc23)C(=O)N[C@@H](CO)C(=O)N[C@@H](Cc2c[nH]c3ccccc23)C(=O)N1C (stereo partly shown) [Example 10036] ({CH2CO}-Y[NMeA]NPS[hSer]PWSW[NMeNle][NMeNle]R[ξC]G-NH2; thioether N-14) | 8.00 to 9.00 |  |
| CCCC[C@H]1C(=O)N(C)[C@@H](CCCC)C(=O)N[C@@H](CCCNC(=N)N)C(=O)NC(C(=O)NCC(N)=O)CSCC(=O)N[C@@H](Cc2ccc(O)cc2)C(=O)N(C)[C@@H](C)C(=O)N[C@@H](CC(N)=O)C(=O)N2CCC[C@H]2C(=O)N[C@@H](CC(N)=O)C(=O)N[C@@H](CC(N)=O)C(=O)N2CCC[C@H]2C(=O)N[C@@H](Cc2c[nH]c3ccccc23)C(=O)N[C@@H](CO)C(=O)N[C@@H](Cc2csc3ccccc23)C(=O)N1C (stereo partly shown) [Example 10042] ({CH2CO}-Y[NMeA]NPNNPWS[Bta][NMeNle][NMeNle]R[ξC]G-NH2; thioether N-14) | 7.00 to 8.00 |  |
| CCCC[C@H]1C(=O)N(C)[C@@H](CCCC)C(=O)N[C@@H](CCCNC(=N)N)C(=O)NC(C(=O)NCC(N)=O)CSCC(=O)N[C@@H](Cc2ccc(O)cc2)C(=O)N(C)[C@@H](C)C(=O)N[C@@H](CC(N)=O)C(=O)N2CCC[C@H]2C(=O)N[C@@H](CCO)C(=O)N[C@@H](CCO)C(=O)N2C[C@H](O)C[C@H]2C(=O)N[C@@H](Cc2c[nH]c3ccccc23)C(=O)N[C@@H](CO)C(=O)N[C@@H](Cc2c[nH]c3ccccc23)C(=O)N1C (stereo partly shown) [Example 10043] ({CH2CO}-Y[NMeA]NP[hSer][hSer][Hyp]WSW[NMeNle][NMeNle]R[ξC]G-NH2; thioether N-14) | 8.00 to 9.00 |  |
| CCCC[C@H]1C(=O)N2CCC[C@@H]2C(=O)N[C@@H](CC(=O)O)C(=O)N[C@@H](C)C(=O)N(C)[C@@H](Cc2ccccc2)C(=O)N[C@@H](Cc2ccc(O)cc2)C(=O)N(C)CC(=O)N[C@@H](Cc2c[nH]c3ccccc23)C(=O)N[C@@H](Cc2ccc(O)cc2)C(=O)N[C@@H](CC(C)C)C(=O)N[C@H](C(=O)NCC(N)=O)CSCC(=O)N[C@@H](Cc2ccccc2)C(=O)N(C)[C@@H](Cc2ccccc2)C(=O)N1C [Example 10044] ({CH2CO}-F[NMeF][NMeNle][dP]DA[NMeF]Y[Sar]WYLCG-NH2; thioether N-13) | 7.00 to 8.00 |  |
| CCCC[C@H]1C(=O)N(C)[C@@H](CCCC)C(=O)N[C@@H](CCCNC(=N)N)C(=O)NC(C(=O)NCC(N)=O)CSCC(=O)N[C@@H](Cc2ccc(O)cc2)C(=O)N(C)[C@@H](C)C(=O)N[C@@H](CC(N)=O)C(=O)N2CCC[C@H]2C(=O)N[C@@H](Cc2cnc[nH]2)C(=O)N[C@@H](CC(C)C)C(=O)N2CCC[C@H]2C(=O)N[C@@H](Cc2c[nH]c3ccccc23)C(=O)N[C@@H](CO)C(=O)N[C@@H](Cc2csc3ccccc23)C(=O)N1C (stereo partly shown) [Example 10045] ({CH2CO}-Y[NMeA]NPHLPWS[Bta][NMeNle][NMeNle]R[ξC]G-NH2; thioether N-14) | 7.00 to 8.00 |  |
| CCCC[C@H]1C(=O)N(C)[C@@H](CCCC)C(=O)N[C@@H](CCCNC(=N)N)C(=O)NC(C(=O)NCC(N)=O)CSCC(=O)N[C@@H](Cc2ccc(O)cc2)C(=O)N(C)[C@@H](C)C(=O)N[C@@H](CC(N)=O)C(=O)N2CCC[C@H]2C(=O)N[C@@H](CO)C(=O)N[C@@H](CCO)C(=O)N2CCC[C@H]2C(=O)N[C@@H](Cc2c[nH]c3ccccc23)C(=O)N[C@@H](CO)C(=O)N[C@@H](Cc2csc3ccccc23)C(=O)N1C (stereo partly shown) [Example 10049] ({CH2CO}-Y[NMeA]NPS[hSer]PWS[Bta][NMeNle][NMeNle]R[ξC]G-NH2; thioether N-14) | 8.00 to 9.00 |  |
